Results taken from PubChem BioAssay (NCI).
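Test compounds were applied to cells in 96-well plates for 48 hours at 5 doses. GI50 = concentration required for 50% inhibition of growth. TGI: concentration producing complete growth inhibition.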

Assays:
Assay in all cases: DTP human tumour cell line panel, 48 h
786-0 renal = system: 786-0 renal
A498 renal = system: A498 renal
A549 NSCLC = system: A549 NSCLC
ACHN renal = system: ACHN renal
BT-549 breast = system: BT-549 breast
CAKI-1 renal = system: CAKI-1 renal
CCRF-CEM leukemia = system: CCRF-CEM leukemia
COLO 205 colon = system: COLO 205 colon
EKVX NSCLC = system: EKVX NSCLC
HCC-2998 colon = system: HCC-2998 colon
HCT-116 colon = system: HCT-116 colon
HCT-15 colon = system: HCT-15 colon
HL-60(TB) leukemia = system: HL-60(TB) leukemia
HOP-62 NSCLC = system: HOP-62 NSCLC
HS 578T breast = system: HS 578T breast
HT29 colon = system: HT29 colon
IGROV1 ovarian = system: IGROV1 ovarian
K-562 leukemia = system: K-562 leukemia
KM12 colon = system: KM12 colon
LOX IMVI melanoma = system: LOX IMVI melanoma
M14 melanoma = system: M14 melanoma
MALME-3M melanoma = system: MALME-3M melanoma
MCF7 breast = system: MCF7 breast
MDA-MB-231 breast = system: MDA-MB-231 breast
MDA-MB-435 = system: MDA-MB-435
MOLT-4 leukemia = system: MOLT-4 leukemia
NCI-H226 lung = system: NCI-H226 lung
NCI-H23 lung = system: NCI-H23 lung
NCI-H460 lung = system: NCI-H460 lung
NCI-H522 lung = system: NCI-H522 lung
OVCAR-3 ovarian = system: OVCAR-3 ovarian
OVCAR-4 ovarian = system: OVCAR-4 ovarian
OVCAR-5 ovarian = system: OVCAR-5 ovarian
OVCAR-8 ovarian = system: OVCAR-8 ovarian
PC-3 prostate = system: PC-3 prostate
RPMI-8226 leukemia = system: RPMI-8226 leukemia
SF-268 CNS = system: SF-268 CNS
SF-295 CNS = system: SF-295 CNS
SF-539 CNS = system: SF-539 CNS
SK-MEL-2 melanoma = system: SK-MEL-2 melanoma
SK-MEL-28 melanoma = system: SK-MEL-28 melanoma
SK-MEL-5 melanoma = system: SK-MEL-5 melanoma
SK-OV-3 ovarian = system: SK-OV-3 ovarian
SNB-19 CNS = system: SNB-19 CNS
SNB-75 CNS = system: SNB-75 CNS
SR leukemia = system: SR leukemia
SW-620 colon = system: SW-620 colon
TK-10 renal = system: TK-10 renal
U251 CNS = system: U251 CNS
UACC-257 melanoma = system: UACC-257 melanoma
UACC-62 melanoma = system: UACC-62 melanoma
DU-145 prostate = system: DU-145 prostate
HOP-92 NSCLC = system: HOP-92 NSCLC
NCI/ADR-RES ovarian = system: NCI/ADR-RES ovarian
RXF 393 renal = system: RXF 393 renal
SN12C renal = system: SN12C renal
T-47D breast = system: T-47D breast
UO-31 renal = system: UO-31 renal

Structure (SMILES): COc1ccc(C2C=C(c3ccc(C)cc3)N(c3ccc(OC)cc3[N+](=O)[O-])C3C(=O)OC(=O)C23)c(OC)c1 (stereo not drawn)
- TGI (786-0 renal): > 100 µM
- TGI (A498 renal): > 100 µM
- TGI (A549 NSCLC): > 100 µM
- TGI (ACHN renal): 37.3 µM
- TGI (BT-549 breast): > 100 µM
- TGI (CAKI-1 renal): > 100 µM
- TGI (CCRF-CEM leukemia): > 100 µM
- TGI (COLO 205 colon): > 100 µM
- TGI (EKVX NSCLC): > 100 µM
- TGI (HCC-2998 colon): 79.4 µM
- TGI (HCT-116 colon): > 100 µM
- TGI (HCT-15 colon): > 100 µM
- TGI (HL-60(TB) leukemia): > 100 µM
- TGI (HOP-62 NSCLC): > 100 µM
- TGI (HS 578T breast): 57.6 µM
- TGI (HT29 colon): 86.4 µM
- TGI (IGROV1 ovarian): 58.1 µM
- TGI (K-562 leukemia): > 100 µM
- TGI (KM12 colon): 22.7 µM
- TGI (LOX IMVI melanoma): 57 µM
- TGI (M14 melanoma): > 100 µM
- TGI (MALME-3M melanoma): 38.5 µM
- TGI (MCF7 breast): > 100 µM
- TGI (MDA-MB-231 breast): > 100 µM
- TGI (MDA-MB-435): > 100 µM
- TGI (MOLT-4 leukemia): 91.6 µM
- TGI (NCI-H226 lung): > 100 µM
- TGI (NCI-H23 lung): > 100 µM
- TGI (NCI-H460 lung): > 100 µM
- TGI (NCI-H522 lung): 53.7 µM
- TGI (OVCAR-3 ovarian): 59 µM
- TGI (OVCAR-4 ovarian): > 100 µM
- TGI (OVCAR-5 ovarian): > 100 µM
- TGI (OVCAR-8 ovarian): 39.5 µM
- TGI (PC-3 prostate): > 100 µM
- TGI (RPMI-8226 leukemia): 56.5 µM
- TGI (SF-268 CNS): > 100 µM
- TGI (SF-295 CNS): > 100 µM
- TGI (SF-539 CNS): 53.2 µM
- TGI (SK-MEL-2 melanoma): > 100 µM
- TGI (SK-MEL-28 melanoma): > 100 µM
- TGI (SK-MEL-5 melanoma): > 100 µM
- TGI (SK-OV-3 ovarian): > 100 µM
- TGI (SNB-19 CNS): > 100 µM
- TGI (SNB-75 CNS): 75.9 µM
- TGI (SR leukemia): 61 µM
- TGI (SW-620 colon): 80.9 µM
- TGI (TK-10 renal): > 100 µM
- TGI (U251 CNS): > 100 µM
- TGI (UACC-257 melanoma): > 100 µM
- TGI (UACC-62 melanoma): > 100 µM

Structure (SMILES): O=C1N=C(Nc2nc(-c3csc(NC4=NC(=O)/C(=C\c5ccccc5)S4)n3)cs2)S/C1=C/c1ccccc1
- GI50 (786-0 renal): 9.54 µM
- TGI (786-0 renal): 34.9 µM
- GI50 (A498 renal): > 50 µM
- TGI (A498 renal): > 50 µM
- GI50 (A549 NSCLC): 16.3 µM
- TGI (A549 NSCLC): > 50 µM
- GI50 (ACHN renal): 12.2 µM
- TGI (ACHN renal): 46.3 µM
- GI50 (CAKI-1 renal): 29.2 µM
- TGI (CAKI-1 renal): > 50 µM
- GI50 (COLO 205 colon): 30.3 µM
- TGI (COLO 205 colon): > 50 µM
- GI50 (DU-145 prostate): 16.8 µM
- TGI (DU-145 prostate): > 50 µM
- GI50 (EKVX NSCLC): 12.7 µM
- TGI (EKVX NSCLC): > 50 µM
- GI50 (HCC-2998 colon): 8.2 µM
- TGI (HCC-2998 colon): 45.5 µM
- GI50 (HCT-116 colon): 3.5 µM
- TGI (HCT-116 colon): 29 µM
- GI50 (HCT-15 colon): 11.2 µM
- TGI (HCT-15 colon): > 50 µM
- GI50 (HL-60(TB) leukemia): 14.3 µM
- TGI (HL-60(TB) leukemia): 36.8 µM
- GI50 (HOP-62 NSCLC): 7.97 µM
- TGI (HOP-62 NSCLC): 46.3 µM
- GI50 (HOP-92 NSCLC): 4.37 µM
- TGI (HOP-92 NSCLC): 20.5 µM
- GI50 (HS 578T breast): > 50 µM
- TGI (HS 578T breast): > 50 µM
- GI50 (HT29 colon): 25.7 µM
- TGI (HT29 colon): > 50 µM
- GI50 (IGROV1 ovarian): 36.6 µM
- TGI (IGROV1 ovarian): > 50 µM
- GI50 (K-562 leukemia): 6.28 µM
- TGI (K-562 leukemia): 48.9 µM
- GI50 (KM12 colon): 11.2 µM
- TGI (KM12 colon): > 50 µM
- GI50 (LOX IMVI melanoma): > 50 µM
- TGI (LOX IMVI melanoma): > 50 µM
- GI50 (M14 melanoma): 4.63 µM
- TGI (M14 melanoma): 32.3 µM
- GI50 (MCF7 breast): 3.7 µM
- TGI (MCF7 breast): > 50 µM
- GI50 (MDA-MB-231 breast): 4.78 µM
- TGI (MDA-MB-231 breast): 18.8 µM
- GI50 (MDA-MB-435): 14.7 µM
- TGI (MDA-MB-435): > 50 µM
- GI50 (MOLT-4 leukemia): 3.02 µM
- TGI (MOLT-4 leukemia): > 50 µM
- GI50 (NCI-H226 lung): 0.337 µM
- TGI (NCI-H226 lung): 12.8 µM
- GI50 (NCI-H23 lung): 17.6 µM
- TGI (NCI-H23 lung): > 50 µM
- GI50 (NCI-H460 lung): 12.8 µM
- TGI (NCI-H460 lung): > 50 µM
- GI50 (NCI-H522 lung): 38.5 µM
- TGI (NCI-H522 lung): > 50 µM
- GI50 (NCI/ADR-RES ovarian): 15.9 µM
- TGI (NCI/ADR-RES ovarian): > 50 µM
- GI50 (OVCAR-3 ovarian): 20.8 µM
- TGI (OVCAR-3 ovarian): > 50 µM
- GI50 (OVCAR-5 ovarian): 34 µM
- TGI (OVCAR-5 ovarian): > 50 µM
- GI50 (OVCAR-8 ovarian): 15.6 µM
- TGI (OVCAR-8 ovarian): > 50 µM
- GI50 (PC-3 prostate): 8.98 µM
- TGI (PC-3 prostate): 42.7 µM
- GI50 (RPMI-8226 leukemia): 0.629 µM
- TGI (RPMI-8226 leukemia): 3.35 µM
- GI50 (RXF 393 renal): 18.5 µM
- TGI (RXF 393 renal): > 50 µM
- GI50 (SF-268 CNS): 16.6 µM
- TGI (SF-268 CNS): > 50 µM
- GI50 (SF-295 CNS): 16.6 µM
- TGI (SF-295 CNS): > 50 µM
- GI50 (SF-539 CNS): 13.6 µM
- TGI (SF-539 CNS): 39.7 µM
- GI50 (SK-MEL-2 melanoma): > 50 µM
- TGI (SK-MEL-2 melanoma): > 50 µM
- GI50 (SK-MEL-28 melanoma): > 50 µM
- TGI (SK-MEL-28 melanoma): > 50 µM
- GI50 (SK-MEL-5 melanoma): 5.87 µM
- TGI (SK-MEL-5 melanoma): 33.4 µM
- GI50 (SN12C renal): 5.64 µM
- TGI (SN12C renal): 20.6 µM
- GI50 (SNB-19 CNS): 49.1 µM
- TGI (SNB-19 CNS): > 50 µM
- GI50 (SW-620 colon): 31.7 µM
- TGI (SW-620 colon): > 50 µM
- GI50 (T-47D breast): > 50 µM
- TGI (T-47D breast): > 50 µM
- GI50 (TK-10 renal): 10.1 µM
- TGI (TK-10 renal): 33.3 µM
- GI50 (U251 CNS): 6.34 µM
- TGI (U251 CNS): > 50 µM
- GI50 (UACC-257 melanoma): 12.2 µM
- TGI (UACC-257 melanoma): 28.1 µM
- GI50 (UACC-62 melanoma): 6.4 µM
- TGI (UACC-62 melanoma): 18.5 µM
- GI50 (UO-31 renal): 17.5 µM
- TGI (UO-31 renal): > 50 µM
